Results from patent US12251411B2, “Methods of treating endometrial cancer using hemp extract” (Ecofibre USA Inc., priority 2021, dated 2025).
Read-outs that look alike come from different tables or passages of the source.

What was measured:
endometrial cancer = assay: Case of a patient with stage IV chemoresistant metastatic endometrial cancer (PET/CT follow up)
From the text: Soon after the experiments detailed above a person came to us. They were diagnosed with endometrial cancer after presenting with significant pain and discomfort. They had already undergone a total hysterectomy and bilateral salpingo-oophorectomy followed by five rounds of chemotherapy. Each of the first five rounds of chemotherapy was a combined chemotherapy with Paclitaxil/Carboplatin.
See, Tables 3 and 4, below. […] As such, […] began standard protocol GemCap treatment in combination with a regime of 30 mg of BSHE twice daily via oral mucosal delivery and 75 mg of FSHE once daily via intravaginal delivery.

[1] = cited from earlier work
[2] = test system: patient derived organoids; assay: Calculated IC50 of various agents on organoids derived from the chemoresistant patient (PD3D cell culture); format: cell-based, human; details: organoids of the chemoresistant stage IV patient
Method: The IC50 values were calculated from such tests. This value indicates the dosage at which 50% of the organoids were killed due to treatment.

[3] = test system: patient derived organoids; format: cell-based, human; details: % of cells that died compared to control; organoids of the chemoresistant patient
Method: In addition to the agents listed above, several other drugs were tested to see if they influenced organoid growth. In this case, results are shown as the % of cells that died compared to control. […] This is consistent with the patient's actual lack of response to treatment with paclitaxel.

[4] = test system: patient derived endometrial cancer organoids; assay: Patient-derived endometrial cancer organoid viability: chemotherapeutic agent alone or with IC50 dose of cannabis extract; details: patient 4
Method: To perform these experiments, we used cells from patient 4 (see, e.g., FIGS. 7A and 7C) to test grade 2 endometrial cancer and cells from patient 12 (see, e.g., FIGS. 7B-7D) to test grade 3 endometrial cancer. […] Methods concerning producing organoids from human tissue samples are provided in the Methods section at the end of this document.
Individual patient cell organoids were cultured separately in different plates.
The same IC50 dose was given with each incremental dose of chemotherapeutic agent.

[5] = oral formulations; cited from earlier work
[6] = before cannabis extract treatment

Molecule	Cmax ([1]; in vivo) [nM]	% Cell Death [3]	further results
CCN1CCN(Cc2ccc(Nc3ncc(F)c(-c4cc(F)c5nc(C)n(C(C)C)c5c4)n3)nc2)CC1 [Abemaciclib]			adverse effects of the patient's earlier treatment (endometrial cancer; human, in vivo): severe adverse effects
C[C@H]1[C@H](OC(=O)CCC(=O)O)O[C@@H]2O[C@@]3(C)CC[C@H]4[C@H](C)CC[C@@H]1[C@@]24OO3 [Artesunate]	8580		IC50 ([2]; Homo sapiens): 38.4 µM
O=C1O[C@H]([C@@H](O)CO)C(O)=C1O [Ascorbic Acid]	436000		Calculated IC50 PD3D Cell Culture [2]: Not Reached
CO[C@H]1C(=O)[C@]2(C)[C@@H](OC)C[C@H]3OC[C@@]3(OC(C)=O)[C@H]2[C@H](OC(=O)c2ccccc2)[C@]2(O)C[C@H](OC(=O)[C@H](O)[C@@H](NC(=O)OC(C)(C)C)c3ccccc3)C(C)=C1C2(C)C [Cabazitaxel]		37%	
CCCCCOC(=O)Nc1nc(=O)n([C@@H]2O[C@H](C)[C@@H](O)[C@H]2O)cc1F [Capecitabine (5-FU)]		61%	Calculated IC50 PD3D Cell Culture [2]: Not Reached
N.N.O=C([O-])C1(C(=O)[O-])CCC1.[Pt+2] [Carboplatin]		30%	reduction of viable organoids ([4]; carboplatin alone 50 μM/mL): about 50%; decrease in viability as compared to 50 μM/mL ([4]; carboplatin alone 100 μM/mL): 2%; decrease in viability from that achieved at 50 μM/mL ([4]; carboplatin alone 250 μM/mL): 17%; organoid viability ([4]; carboplatin alone 250 μM/mL): about 32%
N.N.[Cl][Pt][Cl] [Cisplatin]	3620	36%	IC50 [2]: 5.05 µM
O=C(c1ccc(F)c(F)c1Nc1ccc(I)cc1F)N1CC(O)([C@@H]2CCCCN2)C1 [Cobimetinib]			Cmax [1]: 514 nM; Calculated IC50 PD3D Cell Culture [2]: Not Reached
COc1cc2c(c(OC)c1OC)-c1ccc(OC)c(=O)cc1[C@@H](NC(C)=O)CC2 [Colchicine]	6		
C[C@@H](Oc1cc(-c2cnn(C3CCNCC3)c2)cnc1N)c1c(Cl)ccc(F)c1Cl [Crizotinib]	230		Calculated IC50 PD3D Cell Culture [2]: Not Reached
O=P1(N(CCCl)CCCl)NCCCO1 (centres unmarked) [Cyclosphosphamide]		32%	
CN(C)/N=N/c1[nH]cnc1C(N)=O [Dacarbazine]		32%	
O=C(O)C(Cl)Cl [Dichloracetate]	330000		Calculated IC50 PD3D Cell Culture [2]: Not Reached
CC(=O)O[C@@]12CO[C@@H]1C[C@H](O)[C@@]1(C)C(=O)[C@H](O)C3=C(C)[C@@H](OC(=O)[C@H](O)[C@@H](NC(=O)OC(C)(C)C)c4ccccc4)C[C@@](O)([C@@H](OC(=O)c4ccccc4)[C@H]21)C3(C)C [Docetaxel]		No Response	
COc1cccc2c1C(=O)c1c(O)c3c(c(O)c1C2=O)C[C@@](O)(C(=O)CO)C[C@@H]3O[C@H]1C[C@H](N)[C@H](O)[C@H](C)O1 [Doxorubicin]		39%	
COc1cc([C@@H]2c3cc4c(cc3[C@@H](O[C@@H]3O[C@@H]5CO[C@@H](C)O[C@H]5[C@H](O)[C@H]3O)[C@H]3COC(=O)[C@H]23)OCO4)cc(OC)c1O [Etoposide]		33%	Cmax [1]: 33900 nM; IC50 ([2]; Homo sapiens, unit inferred): 87.3 µM
Nc1ccn([C@@H]2O[C@H](CO)[C@@H](O)C2(F)F)c(=O)n1 [Gemcitabine]		56%	
N[C@@H](CCC(=O)N[C@@H](CS)C(=O)NCC(=O)O)C(=O)O [Glutathione]	150000		Calculated IC50 PD3D Cell Culture [2]: Not Reached
CCN(CCO)CCCC(C)Nc1ccnc2cc(Cl)ccc12 (centres unmarked) [Hydroxychloroquine]	120		Calculated IC50 PD3D Cell Culture [2]: Not Reached
CCc1c2c(nc3ccc(OC(=O)N4CCC(N5CCCCC5)CC4)cc13)-c1cc3c(c(=O)n1C2)COC(=O)[C@]3(O)CC [Irinotecan]		51%	
COc1cc2nccc(Oc3ccc(NC(=O)NC4CC4)c(Cl)c3)c2cc1C(N)=O [Lenvatinib]			Cmax [1]: 1000 nM; Calculated IC50 PD3D Cell Culture [2]: Not Reached
N[C@@H](Cc1ccc(N(CCCl)CCCl)cc1)C(=O)O [Melphalan]		40%	
CN(C)C(=N)N=C(N)N [Metformin]	10800		Calculated IC50 PD3D Cell Culture [2]: Not Reached
O=C1c2c(O)ccc(O)c2C(=O)c2c(NCCNCCO)ccc(NCCNCCO)c21 [Mitoxantrone]		50%	
O=C(Nc1ccc([N+](=O)[O-])cc1Cl)c1cc(Cl)ccc1O [Niclosamide]	310		IC50 ([2]; Homo sapiens): 0.6 µM

Molecule	Cmax ([1]; in vivo) [nM]	% Cell Death [3]	further results
O=C(c1cc(Cc2n[nH]c(=O)c3ccccc23)ccc1F)N1CCN(C(=O)C2CC2)CC1 [Olaparib]			Cmax [1]: 17500 nM; Calculated IC50 PD3D Cell Culture [2]: Not Reached
Cc1[nH]c2ccccc2c1CCNCc1ccc(/C=C/C(=O)NO)cc1 [Panobinostat]	60		IC50 ([2]; Homo sapiens): 0.11 µM
Nc1nc2[nH]cc(CCc3ccc(C(=O)N[C@@H](CCC(=O)O)C(=O)O)cc3)c2c(=O)[nH]1 [Pemetrexed]		No Response	Cmax [1]: 291000 nM; Calculated IC50 PD3D Cell Culture [2]: Not Reached
Nc1cccc2c1C(=O)N(C1CCC(=O)NC1=O)C2=O (centres unmarked) [Pomalidomide]	270		Calculated IC50 PD3D Cell Culture [2]: Not Reached
Cc1ccc(C(=O)Nc2ccc(CN3CCN(C)CC3)c(C(F)(F)F)c2)cc1C#Cc1cnc2cccnn12 [Ponatinib]			Cmax [1]: 137 nM
CC(C)NCC(O)COc1cccc2ccccc12 (centres unmarked) [Propranolol]			Cmax [1]: 102 nM
N#CC[C@H](C1CCCC1)n1cc(-c2ncnc3[nH]ccc23)cn1 [Ruxolitinib]			Cmax [1]: 587 nM
CO[C@@H](C)Cn1c(=O)n(C)c2cnc3ccc(-c4cncc(C(C)(C)O)c4)cc3c21 [Samotolisib]	600		IC50 ([2]; Homo sapiens): 0.87 µM
CCN(CC)CCNC(=O)c1c(C)[nH]c(/C=C2\C(=O)Nc3ccc(F)cc32)c1C [Sunitnib]	90		Calculated IC50 PD3D Cell Culture [2]: Not Reached
CCCCCc1cc(O)c2c(c1)OC(C)(C)[C@@H]1CCC(C)=C[C@@H]21 [THC, Δ^9-tetrahydrocannabinol]			onset to reach peak plasma concentration [5]: ~120 min
Cn1nnc2c(C(N)=O)ncn2c1=O [Temozolomide]	37600	40%	IC50 ([2]; Homo sapiens): 106 µM
COc1cc2c(cc1O)CCN[C@]21CS[C@@H]2c3c(OC(C)=O)c(C)c4c(c3[C@H](COC1=O)N1[C@@H]2[C@H]2c3c(cc(C)c(OC)c3O)C[C@@H]([C@@H]1O)N2C)OCO4 [Trabectedine]		32%	
CC[C@]1(O)C[C@@H]2CN(CCc3c([nH]c4ccccc34)[C@@](C(=O)OC)(c3cc4c(cc3OC)N(C)[C@H]3[C@@](O)(C(=O)OC)[C@H](OC(C)=O)[C@]5(CC)C=CCN6CC[C@]43[C@@H]65)C2)C1 [Vinblastine]		38%	
CCC1=C[C@@H]2CN(C1)Cc1c([nH]c3ccccc13)[C@@](C(=O)OC)(c1cc3c(cc1OC)N(C)[C@H]1[C@@](O)(C(=O)OC)[C@H](OC(C)=O)[C@]4(CC)C=CCN5CC[C@]31[C@@H]54)C2 [Vinorelbine]		45%	
COc1cccc2c1C(=O)c1c(O)c3c(c(O)c1C2=O)C[C@@](O)(C(=O)CO)C[C@@H]3O[C@H]1C[C@H](N)[C@@H](O)[C@H](C)O1 [epirubicin]		No Response	
C=C1C[C@@H]2CC[C@@]34C[C@H]5O[C@H]6[C@@H](O3)[C@H]3O[C@H](CC[C@@H]3O[C@H]6[C@H]5O4)CC(=O)C[C@@H]3[C@@H](OC)[C@@H](C[C@H](O)CN)O[C@H]3C[C@H]3O[C@@H](CC[C@@H]1O2)C[C@@H](C)C3=C [eribulin]		No Response	
O=P1(NCCCl)OCCCN1CCCl (centres unmarked) [ifosfamide]		No Response	
CN(Cc1cnc2nc(N)nc(N)c2n1)c1ccc(C(=O)N[C@@H](CCC(=O)O)C(=O)O)cc1 [methotrexate]		No Response	
CO[C@@]12[C@H](COC(N)=O)C3=C(C(=O)C(C)=C(N)C3=O)N1C[C@@H]1N[C@@H]12 [mitomycin]		No Response	
O=C1[O][Pt]2([NH][C@@H]3CCCC[C@H]3[NH]2)[O]C1=O [oxaliplatin]		No Response	
CC[C@]1(O)C[C@H]2CN(CCc3c([nH]c4ccccc34)[C@@](C(=O)OC)(c3cc4c(cc3OC)N(C=O)[C@H]3[C@@](O)(C(=O)OC)[C@H](OC(C)=O)[C@]5(CC)C=CCN6CC[C@]43[C@@H]65)C2)C1 [vincristine]		No Response	
Atezolizumab			adverse effects of the patient's earlier treatment (endometrial cancer; [6]): severe adverse effects; outcome of the patient's earlier treatment (endometrial cancer; [6]): failed
Bevacizumab	920		Calculated IC50 PD3D Cell Culture [2]: Not Reached
Bleomycin		53%	
Paclitaxil/Carboplatin			outcome of the patient's earlier treatment (endometrial cancer; [6]): ineffective
